Source: patent publication US20060142384A1, “2-Oxyamino-1-cyclopentene-1-nitriles as material protective agents” (priority 2002, published 2006)

What was measured:
Assay type in all cases: cell-based
[1] = tested on: Chaetomium globosum; assay: MIC on malt extract agar against fungi; details: 336 h, 2 weeks at 28° C., 60 to 70% relative atmospheric humidity, read-out: Minimum inhibitory concentrations Chaetomium globosum
Method: (§1) The MIC was determined after 2 weeks of storage at 28° C. and 60 to 70% relative atmospheric humidity.

[2] = tested on: Penicillium brevicaule; assay: MIC on malt extract agar against fungi; details: 336 h, 2 weeks at 28° C., 60 to 70% relative atmospheric humidity, read-out: Minimum inhibitory concentrations Penicillium brevicaule
Method: as §1

[3] = tested on: Pseudomonas aeroginosa; assay: MIC on Landy agar against bacteria; details: 72 h, 3 days at 28° C., 60-70% relative atmospheric humidity, read-out: Minimum inhibitory concentrations Pseudomonas aeroginosa
Method: (§2) A defined Landy Agar was admixed with the active compounds according to the invention in concentrations of […]. The MIC was determined after 3 days of storage at 28° C. and 60-70% relative atmospheric humidity.

[4] = tested on: Bacillus subtilis; assay: MIC on Landy agar against bacteria; details: 72 h, 3 days at 28° C., 60-70% relative atmospheric humidity, read-out: Minimum inhibitory concentrations Bacillus subtilis
Method: as §2

Row | SMILES | MIC [1] | MIC [2] | MIC [3] | MIC [4]
1 | N#CC1=C(NO)CCC1 [Example 1, 2-(Hydroxyamino)-1-cyclopentene-1-carbonitrile] | – | – | < 400 µg/mL | < 400 µg/mL
2 | N#CC1=C(NOCc2ccc(Cl)cc2)CCC1 [Example 14] | < 400 µg/mL | < 400 µg/mL | – | –
3 | N#CC1=C(NOCc2ccccc2)CCC1 [Example 3, 2-[(Benzyloxy)amino]-1-cyclopentene-1-carbonitrile] | < 400 µg/mL | < 400 µg/mL | – | –

Further lines, results first:

Row | MIC [1] | MIC [2] | MIC [3] | MIC [4] | SMILES
4 | < 400 µg/mL | < 400 µg/mL | < 400 µg/mL | < 400 µg/mL | CC(C)C(=O)ON(C(=O)C(C)C)C1=C(C#N)CCC1 [Example 4, N-(2-Cyano-1-cyclopenten-1-yl)-N-(isobutyryloxy)-2-methylpropanamide]
5 | < 400 µg/mL | < 400 µg/mL | – | – | Cc1ccc(CONC2=C(C#N)CCC2)cc1 [Example 12]
